What was measured:
[1] = tested on: Normal cell lines (Genea 002 and Genea 015) and an FSHD-affected cell line (Genea 096); test: Phenotypic marker screen (Example 2): cell count / toxicity; assay type: cell-based, human; conditions: compound added for 24 hours; for toxicity (cell count): analyzed at the end of the myotube stage, cell lines tested overall
Procedure: (§1) Briefly, stem cell lines were cultured in commercially available media, mTeSR (Stem Cell Technologies) or M2 (Genea Biocells) and dissociated into single cells using Passaging Solution (Genea Biocells). Cells were plated in Myogenic Induction Medium to induce myogenic differentiation and incubated at 37° C. and 5% CO2 for 7 to 10 days while performing media changes every other day. Once confluent, cells were dissociated into single cells using Passaging Solution and replated in Myoblast Medium (Genea Biocells) while performing media changes every other day. After 7-10 days the medium was switched to Myotube Medium (Genea Biocells) without any further media changes.
In one example, experiments are set up according to Example 1 with cells being cultured in collagen 1-coated optical bottom 96-well plates. At the end of the culture period cells are fixed with 4% formalin and immunofluorescence stained for DUX4, Ki67, MyoD and/or MF20 or MHC. […] Staining with MF20 or MHC is used to visualize myotube morphology. High-content screening is performed to quantitatively measure the proportion of DUX4, Ki67 and MyoD-positive cells as well as myotube diameter and the number of nuclei per myotube.
(§2) Normal cell lines (Genea 002 and Genea 015) and an FSHD-affected cell line (Genea 096) were cultured and differentiated according to Example 1. Compounds were added for 24 hours either at the beginning of the myoblast stage or at the end of the myoblast stage. Cells were further differentiated to myotubes and analyzed 7 days later at the end of the myotube stage (see FIG. 2) by immunofluorescence staining for MyoD, Ki67 and MF20.

[2] = tested on: normal (Genea016) and FSHD-affected (Genea049 and Genea050) cell lines; test: Timing of compound contact: cell counts; assay type: cell-based, human
Procedure: as §1, with “changes. After 4-7 days many multi-nucleated myotubes were observed and the cells were analyzed using a suitable assay.” for “changes.”
(§3) In another example, normal (Genea016) and FSHD-affected (Genea049 and Genea050) cell lines were differentiated according to Example 1. A DNA methyltransferase inhibitor (Compound #1) (ASK10) or a histone methyltransferase inhibitor (Compound #2) (ASK19) was added for 24 hours either at the beginning of the myoblast stage (Group 1) or at the end of the myoblast stage (Group 2). Cells were further differentiated to myotubes and analyzed 7 days later at the end of the myotube stage (see FIG. 2). Effects on cell counts (FIGS. 11A and 11B) and MF20-positive myotubes (FIGS. 12A and 12B) were assessed.

[3] = tested on: Genea049 reporter cell line; test: Cell death / overall cell numbers by video microscopy; assay type: cell-based, human; conditions: 24 hours pulse at the beginning of the myoblast stage
Procedure: In another example, Genea049 reporter cell line was differentiated according to Example 1 and the compounds were added for 24 hours at the beginning of the myoblast stage. Cells were further differentiated to myotubes (see FIG. 2) and analyzed continuously by video fluorescence microscopy using an Incucyte Zoom instrument (Essen Bioscience).

[4] = tested on: DUX4-GFP reporter; test: Chemically induced DUX4-GFP reporter induction (ASK10 and analogs); assay type: cell-based, human
Description: Cells were transduced with a lentivirus coding for a synthetic DUX4-responsive promoter driving a nuclear turboGFP reporter gene ([…] et al., 2015) and selected using G418 antibiotic (Thermo Fisher). Myogenic differentiation was induced using the Genea Biocells muscle differentiation protocol (Caron et al., 2016). […] Media was changed every other day for 10 days. Myogenic precursors were then re-seeded by treatment with Passaging Solution (Genea Biocells) followed by Neutralizing Solution (Genea Biocells), were pelleted, and were plated at 2500 cells/cm2 in Stage 2 Myoblast Medium (Genea Biocells). […] After treatment, confluent myoblasts were switched to Stage 3 Myotube Medium (Genea Biocells). Cells were imaged hourly for phase and DUX4-GFP reporter fluorescence with the Incucyte live cell imaging system (Essen Bioscience) and Incucyte analysis software reported GFP+ events/mm2. […] Nuclei were quantified using the In Cell 6000 imaging and analysis suite. The system as described herein can be used as a sensitive low-, medium- or high-throughput screening assay to identify compounds that suppress DUX4 following an experimental procedure as outlined in FIG. 19. […] Test compounds are added either at the beginning of differentiation stage 2 or stage 3 and may be present throughput the experiment.

[5] = tested on: FSHD-affected Gen049 human Embryonic Stem Cells (hESCs); test: ASK10 cytotoxicity in DUX4-GFP induction experiments; assay type: cell-based; conditions: FIG. 11A cited
Description: Precursors were then converted to myoblasts by culture in Stage 2 Medium for 7 days with media changes every second day until confluence. […] After treatment, confluent myoblasts were switched to Stage 3 Myotube Medium (Genea Biocells). Cells were imaged hourly for phase and DUX4-GFP reporter fluorescence with the Incucyte live cell imaging system (Essen Bioscience) and Incucyte analysis software reported GFP+ events/mm2. […] Nuclei were quantified using the In Cell 6000 imaging and analysis suite.

[6] = tested on: Normal cell lines (Genea 002 and Genea 015) and an FSHD-affected cell line (Genea 096); test: Phenotypic marker screen (Example 2): myogenesis, MF20 and myotube length; assay type: cell-based, human; conditions: compound added for 24 hours
Procedure: as §1
In one example, experiments are set up according to Example 1 with cells being cultured in collagen 1-coated optical bottom 96-well plates. […] High-content screening is performed to quantitatively measure the proportion of DUX4, Ki67 and MyoD-positive cells as well as myotube diameter and the number of nuclei per myotube.
as §2, with “Compounds were added for 24 hours either at the beginning of the myoblast stage or at the end of the myoblast stage.” left out

[7] = tested on: normal (Genea016) and FSHD-affected (Genea049 and Genea050) cell lines; test: Timing of compound contact: MF20-positive myotubes; assay type: cell-based, human; conditions: 24 hours treatment, analyzed at the end of the myotube stage
Procedure: as §1, with “changes. After 4-7 days many multi-nucleated myotubes were observed and the cells were analyzed using a suitable assay.” for “changes.”
as §3

[8] = tested on: DUX4 reporter in the FSHD-affected Genea049 reporter cell line; test: DUX4 reporter, high-content imaging; assay type: cell-based, human; conditions: added for 24 hours at the end of the myoblast stage; analyzed 7 days later
Procedure: (§4) Lentivirus constructs were used to stably integrate a DUX4 reporter into human embryonic stem cell lines (FIG. 5). Cells were plated in collagen I-coated 12-well plates (Corning BIOCOAT™-Cat #354500) in M2 hESC maintenance medium (Genea Biocells). Since cell lines grow at different rates and may optimally transduce at distinct cell densities, each line was plated at four different cell densities and transduced for 2 hours using a vector preparations diluted at 1:20 (50 ul/ml) in M2 medium containing 8 ug/ml polybrene. A pilot “kill curve” was established using the same non-transfected cell lines to help define the baseline antibiotic concentration required during the selection process. Based on the results, all transduced cells were selected with 300 ug/ml of G418 for at least 10 days. The antibiotic selected cells were further expanded in M2 (2× T175 flasks for each cell line) and samples were cryopreserved as stocks of 0.5 to 1×10^6 cells/vial.
In another example, Genea049 reporter cell line was differentiated according to Example 1 and the compounds were added for 24 hours at the end of the myoblast stage. Cells were further differentiated to myotubes and analyzed 7 days later at the end of the myotube stage (see FIG. 2) by fixation, counterstaining nuclei with Hoechst and visualizing nuclei and the reporter by high-content imaging.

[9] = tested on: DUX4 reporter in the FSHD-affected Genea049 reporter cell line; test: DUX4 reporter, time-lapse video fluorescence microscopy; assay type: cell-based, human; conditions: added for 24 hours at the beginning of the myoblast stage; analyzed continuously
Procedure: as §4
In another example, experiments are set up according to Example 1 with FSHD-affected DUX4 reporter cells being cultured in collagen I-coated 96-well plates. […] The cells are continuously observed by time-lapse video microscopy (IncuCyte Zoom, Essen Bioscience) and the number of GFP-positive (DUX4-expressing) nuclei are detected and quantified throughout the culture period. […]

[10] = tested on: DUX4-GFP reporter; test: Rescue of ASK10- / ASK10 analog-induced DUX4-GFP by ASK19 pre-treatment; assay type: cell-based, human
Procedure: Genea's FSHD-affected Gen049 human Embryonic Stem Cells (hESCs) were cultured on geltrex (Thermo Fisher) using the feeder-free mTeSR system (StemCell Technologies). Cells were transduced with a lentivirus coding for a synthetic DUX4-responsive promoter driving a nuclear turboGFP reporter gene (Rickard et al., 2015) and selected using G418 antibiotic (Thermo Fisher). Myogenic differentiation was induced using the Genea Biocells muscle differentiation protocol (Caron et al., 2016). Reporter stem cells were treated with Accutase (StemCell Technologies) and plated as single cells at 5200 cells/cm2, then changed to Stage 1 Myogenic Induction Medium (Genea Biocells). Media was changed every other day for 10 days. Myogenic precursors were then re-seeded by treatment with Passaging Solution (Genea Biocells) followed by Neutralizing Solution (Genea Biocells), were pelleted, and were plated at 2500 cells/cm2 in Stage 2 Myoblast Medium (Genea Biocells).
In rescue experiments, Stage 2 Day 1 cells were then treated with either 1 uM ASK19 or DMSO vehicle for 24 hours. Precursors were then converted to myoblasts by culture in Stage 2 Medium for 7 days with media changes every second day until confluence. Myoblasts were passaged and seeded at 9000 cells/cm2 in 96 well format, allowed to grow to confluence, and treated in Stage 2 Medium for indicated time (0-48 hours) with 0.01 uM-3 uM of ASK10, ASK10 analog, DMSO vehicle, or media only (FIGS. 15A-15B). After treatment, confluent myoblasts were switched to Stage 3 Myotube Medium (Genea Biocells). Cells were imaged hourly for phase and DUX4-GFP reporter fluorescence with the Incucyte live cell imaging system (Essen Bioscience) and Incucyte analysis software reported GFP+ events/mm2. After imaging, cells were fixed in 10% Formalin (Thermo Fisher) for 15 minutes and stained for 2 hours using PBS (Invitrogen) with 5% BSA (Thermo Fisher), 0.25% Triton-X (Thermo Fisher), and 1:5000 Hoechst (Thermo Fisher) DNA dye. Nuclei were quantified using the In Cell 6000 imaging and analysis suite.

[11] = tested on: DUX4 expression; test: Chaetocin induction of DUX4 expression, immunofluorescence staining; assay type: cell-based, human; conditions: myotubes from FSHD-affected cell lines, DUX4 E5-5 antibody
Procedure: as §1, with “changes. After 4-7 days many multi-nucleated myotubes were observed and the cells were analyzed using a suitable assay.” for “changes.”
(§5) In myotubes from FSHD-affected cell lines DUX4 expression was observed by immunofluorescence staining using DUX4 E5-5 antibody, either spontaneously or by transfecting cells with a DUX4 expression vector (FIG. 3). In some cases, the expression of DUX4 in myogenic cells may be a rare event. Thus, to increase the assay window and sensitivity, chaetocin was used to increase the number of cells expressing DUX4 (FIG. 4A). […] In some examples, compounds may be screened in the presence of 50-200 nM chaetocin, a compound described to result in elevated levels of DUX4 expression in human myoblast cultures (FIG. 2).

[12] = tested on: myotubes from FSHD-affected cell lines; test: Chaetocin toxicity, total nuclei count; assay type: cell-based, human; conditions: at 50-100 nM
Procedure: as §5

In the case of `Nc1ncn([C@H]2C[C@H](O)[C@@H](CO)O2)c(=O)n1` [ASK10, decitabine], the “toxicity (cell count)” value [1] is reported as “highly toxic at higher doses”, the “toxicity to FSHD-affected cells” value ([1]; FSHD-affected cells (Genea 096)) is reported as “less so” and the “toxicity, normal versus FSHD-affected myoblasts” value ([2]; 24 hours treatment) is reported as “much more toxic for normal myoblasts than for FSHD-affected myoblasts”. For the same molecule, the “toxicity (cell counts), FSHD” value ([2]; added at the end of the myoblast stage (Group 2), FSHD) was “not toxic”, the “toxicity (cell counts), normal” value ([2]; added at the end of the myoblast stage (Group 2), normal) was “only mildly toxic” and the “toxicity (cell counts)” value ([2]; added for 24 hours at the beginning of the myoblast stage (Group 1)) was “significant toxicity at higher doses”. For the same molecule, the “time of cell death after the compound had been removed” value [3] was 6 to 7 days, the EC50 ([4]; Homo sapiens, DUX4-GFP cell number per well, read-out: EC50 at which the most significant DUX4 expression induction was detected) was at least 1000 nM and the “DUX4 expression activation versus vehicle control” value ([4]; about 48 hours post-exposure) was 12-15 fold. The “time at which DUX4 induction plateaus” value ([4]; post-exposure) was “about 120 hours” and the cytotoxicity [5] was “did not display any noticeable cytotoxicity”.
`CC[C@H](C)n1cc(C)c2c(C(=O)NCc3c(C)cc(C)[nH]c3=O)cc(-c3ccc(N4CCNCC4)nc3)cc21` [ASK19, GSK126] was tested, and the “toxicity (cell count)” value [1] was “not toxic”, the “myogenesis, cells expressing MF20” value ([6]; analyzed at the end of the myotube stage) was “more MF20-positive cells” and the myotube length ([6]; all cell lines tested) was “longer myotubes”. For the same molecule, the “toxicity (cell counts)” value ([2]; any of the cell lines under any treatment regimen) was “not toxic”, the “MF20-positive myotubes (myogenesis)” value [7] was “dose-dependent increase” and the DUX4-positive cells [8] was “no effect”. The DUX4-positive cells [9] was “suppressed DUX4 expression and/or function”, the EC50 ([10]; ASK10- and ASK10-15-induced, tentative, read-out: EC50 of rescue of induced DUX4-GFP production) was 250 to 500 nM and the “GFP+ events over time, ASK19/ASK10 curve” value ([10]; ASK19 pre-treatment then ASK10, FIG. 18) was “extends along the bottom of the graph”. For the same molecule, the “GFP+ events over time, ASK19/ASK10-15 curve” value ([10]; ASK19 pre-treatment then ASK10-15, FIG. 18) was “extends along the bottom of the graph” and the “rescue of ASK10- and ASK10 analog-induced DUX4 activation” value ([10]; pre-treatment with ASK19) was “rescues”.
In the case of `CN1C(=O)[C@@]23C[C@]4([C@]56C[C@@]78SS[C@@](CO)(C(=O)N7[C@H]5Nc5ccccc56)N(C)C8=O)c5ccccc5N[C@@H]4N2C(=O)[C@]1(CO)SS3` [chaetocin], the “chaetocin concentration found to induce DUX4 expression” value [11] is reported as 50 to 100 nM and the toxicity [12] is reported as “only mild toxicity”.

From US10933068B2, “Modulators of DUX4 for regulation of muscle function” (GENEA BIOCELLS USA (HOLDINGS), INC., priority 2016, dated 2021)
